This test has as its system cleavage of c-Met by γ-secretase. The test is described as follows: Analysis of c-Met processing in c-Met-transfected 293/EBNA-1 cell strain (Western blotting with anti-HA antibody). Further details: dose or concentration left out as unconfirmed. Format: cell-based, rat c-Met in HEK293 (293/EBNA-1) cells. The following applies: Compound E added to culture broth, cultured another day, rat c-Met-HA transfected 293/EBNA-1 (HEK293) cells. The protocol:
Whether or not c-Met is a substrate for γ-secretase was evaluated using HEK293 cells expressing a gene encoding c-Met with an HA tag added to its C-terminus, in the presence of a γ-secretase inhibitor. As the γ-secretase inhibitor, (2S)-2-{[(3,5-difluorophenyl)acetyl]amino}-N-[(3S)-1-methyl-2-oxo-5-phenyl-2,3-dihydro-1H-1,4-benzodiazepin-3-yl]propanamide (hereinafter, sometimes referred to as “Compound E”) (Alexis Biochemicals) was used.
293/EBNA-1 cell strain (Invitrogen) was cultured in 10% FBS (Hyclone)/DMEM (Invitrogen) under 5% CO2 at 37° C., followed by transfection thereinto of the gene encoding rat c-Met with an HA tag added to its C-terminus using Lipofectamine 2000 (Invitrogen). After one day culture under the same conditions, […] Compound E (Alexis Biochemicals) was added to the culture broth. Cells were cultured for another day under the same conditions. Then, the transfected HEK293 cells were collected with PBS (Sigma) and sonicated with a sonicator (Taitec VP-5S) to disrupt cells. Then, the quantity of protein was determined with Protein Assay Kit (BioRad). Samples (2 μl each) were taken from proteins obtained from Compound E-added cells and Compound E-not added cells, respectively, and subjected to SDS-PAGE, followed by Western blotting with an anti-HA antibody (Roche) (final concentration: 0.2 μg/ml). […]
On the technique in general: Immunoblotting shows a protein as a band on a membrane.

For `C[C@H](NC(=O)Cc1cc(F)cc(F)c1)C(=O)N[C@H]1N=C(c2ccccc2)c2ccccc2N(C)C1=O` [Compound E, (2S)-2-{[(3,5-difluorophenyl)acetyl]amino}-N-[(3S)-1-methyl-2-oxo-5-phenyl-2,3-dihydro-1H-1,4-benzodiazepin-3-yl]propanamide], the “c-Met undegraded product (CTF band around 50 kDa) on Western blot” value is on record as “a band around 50 kDa (CTF: C terminal fragment) was accumulated specifically as a c-Met undegraded product”.
